Like-named read-outs stand apart in the source and are kept apart here.
Legend:
[1] = tested on: caterpillars of the army worm (Spodoptera frugiperda); assay: Spodoptera frugiperda test (SPODFR spray treatment); format: in vivo; conditions: foliar, 168 h, read-out: activity (caterpillars killed)
[2] = logP determination by HPLC on reversed-phase columns (C 18), EEC Directive 79/831 Annex V.A8; format: physicochemical
[3] = tested on: larvae of the mustard beetle (Phaedon cochleariae); assay: Phaedon test (PHAECO spray treatment); conditions: in Brassica rapa, foliar, 168 h, read-out: activity (beetle larvae killed)
[4] = tested on: green peach aphid (Myzus persicae); assay: Myzus test (MYZUPE spray treatment); format: in vivo; conditions: foliar, 144 h, read-out: activity (aphids killed)
Procedure: After 6 days the activity is determined, in %.

[5] = application rate 100 g/ha, after 7 days, maize leaf discs, spray
[6] = HPLC, reversed-phase C 18, table value without method mark, read-out: logP
[7] = application rate 100 g/ha, after 6 days, Chinese cabbage leaf discs, spray

| Compound | pest or weed control at 100 g/ha ([1]; in Zea mays) [%] | chromatographic logP [2] | pest or weed control at 100 g/ha [3] [%] | pest or weed control at 100 g/ha ([4]; in Brassica rapa) [%] | pest or weed control at 100 g/ha [1, 5] [%] | chromatographic logP [2, 6] | pest or weed control at 100 g/ha [4, 7] [%] |
| --- | --- | --- | --- | --- | --- | --- | --- |
| COC(=O)N(C)NC(=O)c1cc(Cl)cc(Cl)c1NC(=O)c1cc(Cn2nnc(C(F)(F)C(F)(F)F)n2)nn1-c1ncccc1Cl [Example 25] | 100 | 3.32 | 100 | 100 |  |  |  |
| COC(=O)N(C)NC(=O)c1cc(Cl)cc(C)c1NC(=O)c1cc(Cn2nnc(C(F)F)n2)nn1-c1ncccc1Cl [Example 26] | 100 | 2.49 | 100 | 100 |  |  |  |
| COC(=O)N(C)NC(=O)c1cc(Br)cc(C)c1NC(=O)c1cc(Cn2nnc(C(F)F)n2)nn1-c1ncccc1Cl [Example 27] | 100 | 2.58 | 100 | 100 |  |  |  |
| COC(=O)N(C)NC(=O)c1cc(Cl)cc(Cl)c1NC(=O)c1cc(Cn2nnnc2C(F)F)nn1-c1ncccc1Cl [Example 28] | 100 | 2.27 | 100 | 100 |  |  |  |
| COC(=O)N(C)NC(=O)c1cc(C#N)cc(C)c1NC(=O)c1cc(Cn2ncc(C(F)(F)F)n2)nn1-c1ncccc1Cl [Example 29] | 100 | 2.62 | 100 | 100 |  |  |  |
| COC(=O)N(C)NC(=O)c1cc(Cl)cc(C)c1NC(=O)c1cc(Cn2ncc(C(F)(F)F)n2)nn1-c1ncccc1Cl [Example 30] | 100 | 2.94 | 100 | 100 |  |  |  |
| COC(=O)N(C)NC(=O)c1cc(Cl)cc(Cl)c1NC(=O)c1cc(Cn2ncc(C(F)(F)F)n2)nn1-c1ncccc1Cl [Example 31] | 100 | 2.94 | 100 | 100 |  |  |  |
| COC(=O)N(C)NC(=O)c1cc(I)cc(C)c1NC(=O)c1cc(Cn2ncc(C(F)(F)F)n2)nn1-c1ncccc1Cl [Example 32] | 100 | 2.81 | 100 | 90 |  |  |  |
| COC(=O)N(C)NC(=O)c1cc(Cl)cc(C)c1NC(=O)c1cc(Cn2cc(C(F)(F)F)nn2)nn1-c1ncccc1Cl [Example 33] | 100 | 2.61 | 100 | 100 |  |  |  |
| COC(=O)N(C)NC(=O)c1cc(Cl)cc(Cl)c1NC(=O)c1cc(Cn2cc(C(F)(F)F)nn2)nn1-c1ncccc1Cl [Example 34] | 100 | 2.61 | 100 | 100 |  |  |  |
| COC(=O)N(C)NC(=O)c1cc(I)cc(C)c1NC(=O)c1cc(Cn2cc(C(F)(F)F)nn2)nn1-c1ncccc1Cl [Example 35] | 100 | 3.14 | 100 | 100 |  |  |  |
| COC(=O)N(C)NC(=O)c1cc(Cl)cc(Cl)c1NC(=O)c1cc(Cn2cnc(C(F)(F)F)c2C(F)(F)F)nn1-c1ncccc1Cl [Example 36] |  |  | 100 |  | 100 | 3.1 | 100 |
| COC(=O)N(C)NC(=O)c1cc(Cl)cc(C)c1NC(=O)c1cc(Cn2cc(C3CC3)nn2)nn1-c1ncccc1Cl [Example 37] | 100 | 2.18 | 100 | 100 |  |  |  |
| COC(=O)NNC(=O)c1cc(Cl)cc(C)c1NC(=O)c1cc(Cn2cc(C3CC3)nn2)nn1-c1ncccc1Cl [Example 38] | 100 | 2.02 | 100 | 100 |  |  |  |
| COC(=O)N(C)N(C)C(=O)c1cc(Cl)cc(C)c1NC(=O)c1cc(Cn2cc(-c3ccc(Cl)cc3)nn2)nn1-c1ncccc1Cl [Example 41] |  |  | 100 |  | 100 | 3.49 | 100 |
| COC(=O)N(C)NC(=O)c1cc(Cl)cc(Cl)c1NC(=O)c1cc(Cn2nc(C(F)F)cc2C(F)F)nn1-c1ncccc1Cl [Example 42] | 100 | 2.9 | 100 | 100 |  |  |  |
| COC(=O)N(C)NC(=O)c1cc(C#N)cc(C)c1NC(=O)c1cc(Cn2nnc(C(F)F)n2)nn1-c1ncccc1Cl [Example 45] | 100 | 2.15 | 100 | 100 |  |  |  |
